Laboratory results taken from patent US20250197351A1, “C4-CARBOXYLIC ACID-S[…] DERIVATIVES AND METHODS OF USING” (priority 2022, published 2025).
Where “and” joins values, the source holds several entries; their conditions need not be identical. Equal entries are not always repeated.

Tests used:
[1] = Stability in enzyme-free control buffer; type: in vitro ADME; conditions: 50 mM potassium phosphate buffer pH 7.4
From the text: (§1) A fundamental evaluation in drug development is the assessment of absorption, distribution, metabolism, excretion, and pharmacokinetics (ADME/PK) (Eddershaw et al., 2000, Drug Discovery Today 5(9): 409-414). […] Drug stability upon exposure to human liver microsomes and liver S9 cellular fractions is a common in vitro assay to approximate in vivo, liver-based drug metabolism (Richardson et al., 2016 Drug Metabolism Letters 10:83-90). First-pass metabolism is also often approximated in vitro using intestinal microsome and cellular S9 fractions (Hatley et al., 2017, Biopharmaceuticals & Drug Disposition, 38(2):155-160). […] Supernatants were analyzed for the presence of candidate prodrugs (parent molecule) and psilocin (the predicted metabolite) using Orbitrap LC-MS (Thermo Scientific) using previously described methods (Menéndez-Perdomo et al., 2021, J Mass Spectrom, 56: e4683). […] Assay concentrations (M) of both parent ‘prodrug’ molecule and psilocin metabolite, as quantified through LC-MS using routine standard curve procedures, were plotted as functions of assay time (minutes). The metabolism rate (T1/2) was determined from the metabolism curve plot using the one phase decay feature of GraphPad PRISM software (Version 9.2.0). The quantity of parent prodrug at time zero was set as 100%.

[2] = Mouse pharmacokinetic (PK) study, parent compound and psilocin metabolite in plasma; type: in vivo
From the text: (§2) Briefly, the procedure was as follows. […] 19, 2022.

[3] = Metabolic stability / psilocin release in serum; type: in vitro ADME; conditions: 10% human AB serum
From the text: as §1, with “100%. […]” for “100%.”

[4] = Metabolic stability / psilocin release in liver fractions; type: in vitro ADME, human; conditions: HLM and HLS9; 2.5 μM; up to 2 hours
From the text: as §1, with “100%. […]” for “100%.”

[5] = Dosing solution concentration by LC-MS (nominal vs measured); type: physicochemical
Description: as §2
Pharmacokinetic (PK) evaluations were performed in the same manner as described in Example 1, except compound C(IV) was used in place of compound C(V). […] Thus, only psilocin PK analysis was performed. […] Table 46 summarizes these “measured” concentrations along with corresponding “nominal” concentrations for each dosing solution. Results for psilocin PK following C(IV) administration are found in Tables 47A-47B (0.293 mg/kg IV dose), Tables 48A-48B (0.275 mg/kg oral dose), Tables 49A-49B (0.789 mg/kg oral dose), Tables 50A-50B (2.52 mg/kg oral dose), Table 51 (comparative summary for IV data), Table 52 (comparative summary for oral data), Table 53A (psilocin exposure) and FIGS. 10H (i) and 10H (ii).

[6] = biological target: T1, 5-HT1A receptor (Homo sapiens, UniProt P08908); experiment: cAMP-Glo assay of 5-HT1A receptor modulation, CHO-K1/5-HT1A/Ga15 (+5-HT1A) vs CHO-K1/Ga15 (−5-HT1A) cells; type: cell-based; conditions: +5-HT1A vs −5-HT1A CHO-K1 cells; 4 μM forskolin; increasing ligand concentration
T1 construct: host or cells: CHO-K1 (co-expressing Ga15)
T1 sequence (P08908 1-422): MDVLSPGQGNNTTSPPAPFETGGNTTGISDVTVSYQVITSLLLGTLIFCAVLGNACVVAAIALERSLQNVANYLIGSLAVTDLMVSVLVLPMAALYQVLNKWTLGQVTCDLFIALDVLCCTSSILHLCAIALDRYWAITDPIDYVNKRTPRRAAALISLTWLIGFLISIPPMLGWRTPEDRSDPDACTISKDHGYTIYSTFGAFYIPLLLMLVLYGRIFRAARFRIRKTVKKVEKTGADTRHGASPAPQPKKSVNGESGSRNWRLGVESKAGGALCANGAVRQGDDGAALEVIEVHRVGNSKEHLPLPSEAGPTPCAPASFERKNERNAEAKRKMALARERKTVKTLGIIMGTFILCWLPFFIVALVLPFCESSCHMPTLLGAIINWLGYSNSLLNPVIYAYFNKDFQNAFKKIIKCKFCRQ

[7] = biological target: T2, 5-HT2A receptor (5-HT2AR) (Mus musculus, UniProt P35363); experiment: Drug-induced Head Twitch Response (HTR); type: in vivo; conditions: 1 mg/kg i.p., 15-to-30-minute window post-drug, relative to vehicle
T2 construct: host or cells: C57BL/6 mice, in vivo (neuronal receptor)
T2 sequence (P35363 whole entry): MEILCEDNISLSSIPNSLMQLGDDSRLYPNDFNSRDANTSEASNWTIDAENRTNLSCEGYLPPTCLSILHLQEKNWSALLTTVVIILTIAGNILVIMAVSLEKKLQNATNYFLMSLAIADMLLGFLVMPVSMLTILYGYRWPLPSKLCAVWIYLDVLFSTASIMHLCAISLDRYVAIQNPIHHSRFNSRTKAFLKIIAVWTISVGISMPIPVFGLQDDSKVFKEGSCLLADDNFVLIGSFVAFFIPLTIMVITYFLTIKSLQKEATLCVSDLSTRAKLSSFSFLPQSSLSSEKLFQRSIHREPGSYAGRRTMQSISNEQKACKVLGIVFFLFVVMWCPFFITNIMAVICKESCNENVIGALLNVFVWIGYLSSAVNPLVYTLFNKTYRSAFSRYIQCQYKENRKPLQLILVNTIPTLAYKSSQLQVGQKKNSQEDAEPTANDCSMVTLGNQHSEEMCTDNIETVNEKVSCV

## CN(C)CCc1c[nH]c2cccc(OP(=O)(O)O)c12 [psilocybin, reference compound]
[1]
  Stability in assay buffer: stability of psilocybin was confirmed in assay buffer
[2]; mouse, 1 mg/kg i.v.
  Detection of parent compound in plasma after i.v. administration: only detectable in i.v. administered animals
[2]; mouse, 1 mg/kg i.v., 0.25 h, individual animals, BLQ = below 0.5 ng/mL (C(V)), 1 mg/kg
  Plasma concentration of parent compound: 3.32 ng/mL and 8.95 ng/mL and 27.2 ng/mL
[2]; mouse, 1 mg/kg i.v., 0.5 h, individual animals, BLQ = below 0.5 ng/mL (C(V)), 1 mg/kg
  Plasma concentration of parent compound: No Peak and 2.35 ng/mL and 6.21 ng/mL
[2]; mouse, 1 mg/kg i.v., 1 h, individual animals, 1 mg/kg
  Plasma concentration of parent compound: No Peak
[2]; mouse, 1 mg/kg i.v., 2 h, individual animals
  Plasma concentration of parent compound: No Peak
[2]; mouse, 1 mg/kg i.v., 4 h, individual animals
  Plasma concentration of parent compound: No Peak
[2]; mouse, 1 mg/kg i.v., 6 h, individual animals
  Plasma concentration of parent compound: No Peak
[2]; mouse, 1 mg/kg i.v., 8 h, individual animals, 1 mg/kg
  Plasma concentration of parent compound: No Peak
[2]; mouse, orally administered, any dose (1, 3, 10 mg/kg)
  Detection of parent compound in plasma after oral administration: not detectable
[2]; mouse, prodrug 1 mg/kg p.o. (psilocybin: 1.56 mg/kg), 24 h, individual animals, BLQ = below 0.2 ng/mL
  Plasma concentration of psilocin: BLQ
[2]; mouse, prodrug 3 mg/kg p.o., 24 h, individual animals, BLQ = below 0.2 ng/mL
  Plasma concentration of psilocin: BLQ
[3]
  Metabolic stability and conversion to psilocin in serum: stable in serum with no conversion to psilocin
[4]
  Metabolic stability and conversion to psilocin in liver fractions: stable in liver fractions with no conversion to psilocin

## CN(C)CCc1c[nH]c2cccc(OC(=O)CC3CC3)c12 [C(IV)]
[2]; 0.275 mg/kg oral C(IV), 4 h, individual mice, LLOQ 0.2 ng/mL
  Plasma concentration of psilocin: BLQ
[2]; 0.275 mg/kg oral C(IV), 6 h, individual mice, LLOQ 0.2 ng/mL
  Plasma concentration of psilocin: BLQ
[2]; 0.275 mg/kg oral C(IV), 8 h, individual mice, LLOQ 0.2 ng/mL
  Plasma concentration of psilocin: BLQ
[2]; 0.275 mg/kg oral C(IV), 24 h, individual mice, LLOQ 0.2 ng/mL
  Plasma concentration of psilocin: No Peak
[2]; 0.293 mg/kg i.v. C(IV), 8 h, individual mice, LLOQ 0.2 ng/mL
  Plasma concentration of psilocin: No Peak and BLQ (2×)
[2]; 0.789 mg/kg oral C(IV), 8 h, individual mice, LLOQ 0.2 ng/mL
  Plasma concentration of psilocin: BLQ
[2]; 0.789 mg/kg oral C(IV), 24 h, individual mice, LLOQ 0.2 ng/mL
  Plasma concentration of psilocin: No Peak
[2]; 2.52 mg/kg oral C(IV), 24 h, individual mice, LLOQ 0.2 ng/mL
  Plasma concentration of psilocin: BLQ and No Peak (2×)
[2]; mouse, any animals at any dose (i.v. and oral)
  Detection of parent compound in plasma: not detectable in any animals at any dose
[5]
  Stability in dosing solutions: compound instability in dosing solutions
[6]
  5-HT1A receptor modulation (reduction of forskolin-induced cAMP): significant receptor modulation
[7]
  Head Twitch Response (HTR) incidence: Elevated incidences of HTR
